This assay relates to HIV-1 infection of TZM-bl cells. Description: HIV-1 infectivity enhancement assay, β-galactosidase luminescence. Particulars: input.xlsx of the Pattern-Analysis script; infectivity relative to EF-C (peptide 59 = 1.00). Format: cell-based.

Drawing on article PMC10447463, “Data-mining unveils structure–property–activity correlation of viral infectivity enhancing self-assembling peptides” (Nature Communications, 2023), this text covers infectivity for 128 substances.

Turning to CEFEFQF [compound 90], the infectivity came to 0.00521.
Consider CEFEFQFNMWQ [compound 131], for which the infectivity is recorded as 0.14.
Under CEIEIQI [compound 2] stands 0.0279; under CEIEIQINM [compound 134], 0.0651.
As for CEIEIQINMWQ [compound 133], the figure is 0.22; as for CETMYDKILKNLSRSR [compound 57], 0.02.
Under CHLHLQL [compound 56] stands 0.10.
For CKAKAQA [compound 137], the infectivity is recorded as 0.03.
As for CKAKAQANM [compound 11], the figure is 0.03; as for CKAKAQANMWQ [compound 10], 0.0437; as for CKFC [compound 50], 0.011.
As to CKFKFQF [compound 6], the infectivity amounted to 1.23.
As for CKFKFQFNM [compound 5], the infectivity came out at 1.24.
Under CKFKFQFNMW [compound 91] stands 0.96; under CKFKFQFNMWQ [compound 4], 1.16; under CKFKFQFW [compound 148], 0.88.
Under CKFKQFF [compound 17] stands 0.00675; under CKFKQFFNM [compound 16], 0.41; under CKFKQFFNMWQ [compound 15], 0.61.
Turning to CKFQC [compound 48], the infectivity is reported as 0.0227.
Under CKIKIQI [compound 99] stands 1.02; under CKIKIQIII [compound 1], 0.98.
As for CKIKIQINM [compound 98], the figure is 1.59.
Regarding CKIKIQINMW [compound 153], the infectivity came to 1.29.
As for CKIKIQINMWQ [compound 96], the figure is 0.70.
Under CKIKIQIRGD [compound 109] stands 0.33.
As for CKIKQII [compound 100], the figure is 0.04; as for CKIKQIINM [compound 3], 0.50.
On to CKIKQIINMWQ [compound 101], for which the infectivity is recorded as 1.24.
Regarding CKIKQIIRGD [compound 110], the infectivity stood at 0.05.
As for CKIW [compound 152], the figure is 0.05.
With CKWKWQW [compound 94], the infectivity was 0.25.
As for CKYKYQY [compound 92], the figure is 0.04.
For the substance CQFQFQF [compound 112], the infectivity amounted to 0.35.
Under CRFRFQF [compound 28] stands 0.34.
Take CRFRVPF [compound 55]: the infectivity worked out at 0.02.
Under CSISIQI [compound 132] stands 0.0559; under CSISIQINM [compound 135], 0.20.
As for EFEFQF [compound 89], the figure is 0.00327; as for EIEIEIEI [compound 82], 0.0178; as for EIEIQINM [compound 155], 0.0363.
As for EIEIQINMWQ [compound 162], the infectivity came out at 0.13.
As for EIKIQINM [compound 149], the figure is 0.10; as for FDPFDPFDP [compound 40], 0.0234.
As for FKFDKFKFDK [compound 42], the figure is 0.0464.
Under HGDKCHGDKC [compound 35] stands 0.01.
As for HGEHGE [compound 53], the infectivity was found to be 0.00641.
As for HGEHGEHGE [compound 54], the infectivity is 0.019.
Turning to HHHHEIEIEIEI [compound 87], the infectivity is 0.03.
As for HHHHKAKAKAKAWWWW [compound 151], the figure is 0.09.
As for HHHHKAKAKAKAYYYY [compound 124], the figure is 0.0131.
As for HHHHKIKIKIKIWWWW [compound 140], the figure is 0.38; as for HHHHKIKIKIKIYYYY [compound 144], 0.68; as for HHHHKIKIQINMYYYY [compound 138], 1.11.
As for HIHIQIC [compound 29], the infectivity turned out to be 0.27.
Under HLHLPLL [compound 31] stands 0.01.
Under HRRHFRHKITKKK [compound 45] stands 0.0136; under IKVAVKIKIQINM [compound 150], 0.50.
In the case of ILKNLSRSRKIKIQIC [compound 128], the infectivity is 0.34.
With ILKNLSRSRKIKIQINMWQ [compound 154], the infectivity is reported as 0.32.
As for KAKAKAQA [compound 116], the figure is 0.00871; as for KAKAQA [compound 78], 0.0181; as for KAKAQANM [compound 136], 0.009.
Under KAKAQANMWQ [compound 66] stands 0.00715; under KAKQAANMWQ [compound 69], 0.03.
As for KFKFEFEF [compound 106], the figure is 0.0284; as for KFKFKFQF [compound 118], 0.80; as for KFKFQF [compound 80], 0.06.
For KFKFQFF [compound 121], the infectivity is on record as 0.12.
For KFKFQFFF [compound 114], the infectivity was 0.40.
Consider KFKFQFN [compound 9], for which the infectivity was 0.018.
As for KFKFQFNM [compound 8], the figure is 0.47; as for KFKFQFNMW [compound 7], 0.45; as for KFKFQFNMWQ [compound 67], 0.76.
Under KFKFQFW [compound 147] stands 0.16; under KFKQFFINMWQ [compound 158], 0.92; under KFKQFFNMWQ [compound 68], 0.09.
Regarding KIEIQINM [compound 108], the infectivity was determined as 0.0348.
As to KIKIKIKI [compound 130], the infectivity is 0.0326.
As for KIKIKIKIWW [compound 139], the figure is 0.37; as for KIKIKIKIWWWW [compound 129], 0.59; as for KIKIKIKIYYYY [compound 86], 1.38.
Under KIKIKIQI [compound 115] stands 0.10.
As for KIKIKIQINMWQ [compound 163], the figure is 0.79; as for KIKIQI [compound 79], 0.07; as for KIKIQIAMWQ [compound 85], 0.39.
Take KIKIQIC [compound 125]: the infectivity came to 0.61.
For KIKIQII [compound 113], the infectivity is 0.0187.
As for KIKIQIII [compound 122], the infectivity was 0.35.
Take KIKIQIMQWN [compound 160]: the infectivity is reported as 0.72.
Under KIKIQIMWNQ [compound 159] stands 0.56.
As to KIKIQIN [compound 77], the infectivity came out at 0.27.
Under KIKIQINAWQ [compound 84] stands 0.54; under KIKIQINM [compound 76], 0.36.
Under KIKIQINMAQ [compound 83] stands 0.21; under KIKIQINMW [compound 75], 2.16.
As for KIKIQINMWA [compound 81], the figure is 0.69.
KIKIQINMWQ [compound 61]: the infectivity came out at 0.30.
As for KIKIQINMWQRGD [compound 161], the figure is 0.0121.
Under KIKIQINMWWQ [compound 156] stands 3.21.
Under KIKIQINMWWWQ [compound 157] stands 2.75; under KIKIQIRGD [compound 102], 0.02.
Take KIKIQIW [compound 146]: the infectivity was found to be 0.14.
Consider KIKQII [compound 107], for which the infectivity is given as 0.00492.
As for KIKQIIN [compound 74], the figure is 0.04.
As to KIKQIINM [compound 73], the infectivity worked out at 0.45.
Under KIKQIINMWQ [compound 65] stands 0.35; under KIRGKFEKED [compound 47], 0.06; under KKFQKKFQ [compound 37], 0.0285.
Under KLKLKLQL [compound 117] stands 0.10; under KLKLQLL [compound 120], 0.00698.
As for KLKQLL [compound 95], the figure is 0.00739.
Consider KNDKND [compound 52], for which the infectivity is given as 0.0105.
Under KNERIKNERI [compound 46] stands 0.013; under KVKGVGK [compound 43], 0.0259; under KVKVKVQV [compound 64], 0.0173.
Under KVKVQVV [compound 119] stands 0.00912; under KVKVQVVV [compound 123], 0.0351.
Under KWKWQW [compound 93] stands 0.0145; under KYKGAIIGNIK [compound 34], 0.0031.
Regarding KYKYQY [compound 88], the infectivity is on record as 0.01.
As for MDQMDQMDQMDQMDQ [compound 39], the figure is 0.00427; as for MKFKFQF [compound 58], 0.0637; as for MKFM [compound 49], 0.0175.
As for MKIKIQINM [compound 141], the figure is 0.27; as for MKIKIQINMWQ [compound 143], 0.42; as for NMWQKAKAQA [compound 62], 0.04.
Under NMWQKFKFQF [compound 63] stands 0.27.
